Assay results published in patent US20230382926A1, “COMPOUNDS AND USES THEREOF” (The University of The West Indies, priority 2022, published 2023).

How the values were obtained:
Assay in all cases: Rescue concentration, modified checkerboard MIC adjuvant assay
Format in all cases: cell-based
[1] = tested on: Enterococcus faecalis ATCC 51299; conditions: E. faecalis ATCC 51299
Method: (§1) Reference microorganisms as well as clinical strains used to evaluate the antimicrobial adjuvant properties of SP-6azaBIM 125 and SP-6azaBIM 136 are listed in Table 3. Clinical strains of bacteria were kindly provided by the Faculty of Medical Sciences, UWI, St. Augustine, Trinidad. All bacterial cultures were cryopreserved in 30% glycerol/Brain Heart Infusion (BHI) at −80° C. Cultures were revived on BHI agar (Oxoid Ltd, England) and maintained at 4° C. until needed.
(§2) Prior to each experiment, cultures were streaked onto clean BHI agar plates and incubated at 35° C. for 24 hours. Colonies of the respective cultures were selected and inoculated in phosphate buffer saline (pH 7.5) to a 0.5 McFarland turbidity standard (equivalent to 10^8 CFU mL^−1). For inhibitory studies the bacterial suspensions were diluted 1:100 in cation-adjusted Mueller Hinton Broth (ca-MHB) (Oxoid Ltd, England). Fastidious bacteria including Streptococcus pneumoniae, Haemophilus infuenzae and Clostridium difficile were maintained on BHI agar with 5% defibrinated sheep blood and diluted in ca-MHB with 5% defibrinated sheep blood.
(§3) Antibiotic powders used in this study were purchased from Sigma Aldrich Ltd. (WI, USA). Antibiotic stock solutions were made at 50 mg mL^−1 according to Andrews (2001) and working solutions were prepared 24 h before use and stored at 4° C.
(§4) HCl salts of the of the SP-azaBIM test compounds were prepared prior to testing and stored at 4° C. Working preparations of each compound were made to 1 mg/mL in sterile deionised water.
(§5) The antibiotic adjuvant activity of the SPazaBIMs were evaluated in combination with representative antibiotics (representing 13 antibiotic classes) against the 19 pathogens strains listed in Table 3. To assess the adjuvant properties of the SP-azaBIM molecules, a modified checkerboard minimum inhibitory concentration assay was used. A fixed concentration of the respective antibiotic (susceptible breakpoint concentration) was mixed with a twofold dilution series of the test SP-azaBIM (FIG. 1). This was to determine the concentration of SP-azaBIM needed potentiate the antibiotic at a clinically susceptible breakpoint concentration. Antibiotic susceptible breakpoint concentrations for the respective bacteria were determined using Clinical Laboratory Standards Institute (CLSI) criteria M100 ED31.
(§6) In this study, only those antibiotics to which the bacterial was classed as resistant were included in the adjuvant assays. In this assay we recorded the rescue concentration of the SP-BIM for a respective antibiotic. The rescue concentration was defined as the concentration of the adjuvant that reduces the minimum inhibitory concentration (MIC) of an antibiotic to the susceptibility breakpoint.
(§7) Immediately prior to testing, the respective antibiotic and SP-azaBIM was dissolved in sterile deionised water at 20× the required test concentration. Each microtiter well was then inoculated with 180 μl of bacterial inoculum of 10^6 CFU/ml in ca-MHB, and 10 μl each if the antibiotic and SP-azaBIM was added to the plates. These plates were then incubated at 35° C. for 24 h under aerobic conditions. A similar method was followed for the fastidious pathogens except that they were cultured in ca-MHB with 5% sheep blood and 5% CO2.
(§8) Bacterial growth was visually inspected after the incubation period and the rescue concentration of the test SP-azaBIM was determined as the lowest concentration of the compound needed to reduce bacterial growth by 99.99% at the susceptible breakpoint concentration of the antibiotic. For example, CLSI states that Pseudomonas aeruginosa is susceptible to the Imipenem if the MIC is ≤2 μg mL^−1. If the bacteria can tolerate this concentration in vitro, then the bacteria has an intermediate or absolute resistance toward that antibiotic. […]

[2] = tested on: Escherichia coli ATCC 35150; conditions: E. coli ATCC 35150
Method: as §1, §2, §3, §4, §5, §6, §7, §8

[3] = tested on: Klebsiella pneumoniae ATCC 49472; conditions: K. pneumoniae ATCC 49472
Method: as §1, §2, §3, §4, §5, §6, §7, §8

[4] = tested on: Klebsiella pneumoniae ATCC BAA-2814; conditions: K. pneumoniae ATCC BAA-2814
Method: as §1, §2, §3, §4, §5, §6, §7, §8

[5] = tested on: Streptococcus pneumoniae ATCC 49619; conditions: S. pneumoniae ATCC 49619
Method: as §1, §2, §3, §4, §5, §6, §7, §8

[6] = tested on: Stenotrophomonas maltophilia MDR 7785; conditions: S. maltophilia MDR 7785
Method: as §1, §2, §3, §4, §5, §6, §7, §8

[7] = tested on: Pseudomonas aeruginosa MDR 5805; conditions: P. aeruginosa MDR 5805
Method: as §1, §2, §3, §4, §5, §6, §7, §8

[8] = tested on: Staphylococcus aureus ATCC BAA-2312; conditions: S. aureus ATCC BAA-2312
Method: as §1, §2, §3, §4, §5, §6, §7, §8

[9] = Amp at susceptible breakpoint 8 μg mL^−1
[10] = Chl at susceptible breakpoint 8 μg mL^−1
[11] = Dox at susceptible breakpoint 4 μg mL^−1
[12] = Tri at susceptible breakpoint 8 μg mL^−1
[13] = Col at susceptible breakpoint 8 μg mL^−1
[14] = Gen at susceptible breakpoint 4 μg mL^−1
[15] = Imi at susceptible breakpoint 1 μg mL^−1
[16] = Amox at susceptible breakpoint 8 μg mL^−1
[17] = Ceph at susceptible breakpoint 8 μg mL^−1
[18] = Imi at susceptible breakpoint 2 μg mL^−1
[19] = Mero at susceptible breakpoint 2 μg mL^−1

## Brc1ccc(C(c2c[nH]c3ncccc23)c2c[nH]c3ncccc23)cc1 [SP-7azaBIM 126, 3,3′-((4-bromophenyl)methylene)bis(1H-pyrrolo[2,3-b]pyridine)]
[1]; [9]
  Rescue concentration, Amp (8): 32 µg/mL
[1]; [10]
  Rescue concentration, Chl (8): >128 µg/mL
[1]; [11]
  Rescue concentration, Dox (4): >128 µg/mL
[1]; Ery at susceptible breakpoint 0.5 μg mL^−1
  Rescue concentration, Ery (0.5): >128 µg/mL
[1]; [12]
  Rescue concentration, Tri (8): >128 µg/mL
[1]; Van at susceptible breakpoint 4 μg mL^−1
  Rescue concentration, Van (4): 64 µg/mL
[2]; [9]
  Rescue concentration, Amp (8): >128 µg/mL
[2]; Cip at susceptible breakpoint 0.25 μg mL^−1
  Rescue concentration, Cip (0.25): >128 µg/mL
[2]; [13]
  Rescue concentration, Col (8): >128 µg/mL
[2]; [11]
  Rescue concentration, Dox (4): >128 µg/mL
[2]; [14]
  Rescue concentration, Gen (4): >128 µg/mL
[2]; [15]
  Rescue concentration, Imi (1): >128 µg/mL
[3]; [16]
  Rescue concentration, Amox (8): >128 µg/mL
[3]; [9]
  Rescue concentration, Amp (8): >128 µg/mL
[3]; [13]
  Rescue concentration, Col (8): >128 µg/mL
[3]; [15]
  Rescue concentration, Imi (1): >128 µg/mL
[3]; Mero at susceptible breakpoint 1 μg mL^−1
  Rescue concentration, Mero (1): >128 µg/mL
[3]; Pol B at susceptible breakpoint 8 μg mL^−1
  Rescue concentration, Pol B (8): >128 µg/mL
[4]; [16]
  Rescue concentration, Amox (8): >128 µg/mL
[4]; [9]
  Rescue concentration, Amp (8): >128 µg/mL
[4]; Aze at susceptible breakpoint 4 μg mL^−1
  Rescue concentration, Aze (4): >128 µg/mL
[4]; Azi at susceptible breakpoint 16 μg mL^−1
  Rescue concentration, Azi (16): >128 µg/mL
[4]; Cef at susceptible breakpoint 16 μg mL^−1
  Rescue concentration, Cef (16): >128 µg/mL
[4]; [17]
  Rescue concentration, Ceph (8): >128 µg/mL
[4]; [10]
  Rescue concentration, Chl (8): >128 µg/mL
[4]; [13]
  Rescue concentration, Col (8): >128 µg/mL
[4]; [11]
  Rescue concentration, Dox (4): >128 µg/mL
[4]; [14]
  Rescue concentration, Gen (4): >128 µg/mL
[4]; [15]
  Rescue concentration, Imi (1): >128 µg/mL
[4]; Tet at susceptible breakpoint 4 μg mL^−1
  Rescue concentration, Tet (4): >128 µg/mL
[5]; Amox at susceptible breakpoint 2 μg mL^−1
  Rescue concentration, Amox (2): >128 µg/mL
[5]; Ery at susceptible breakpoint 0.25 μg mL^−1
  Rescue concentration, Ery (0.25): >128 µg/mL
[5]; Imi at susceptible breakpoint 0.12 μg mL^−1
  Rescue concentration, Imi (0.12): >128 µg/mL
[6]; Cef at susceptible breakpoint 8 μg mL^−1
  Rescue concentration, Cef (8): >128 µg/mL
[6]; [17]
  Rescue concentration, Ceph (8): >128 µg/mL
[6]; [10]
  Rescue concentration, Chl (8): >128 µg/mL
[6]; Cip at susceptible breakpoint 2 μg mL^−1
  Rescue concentration, Cip (2): >128 µg/mL
[6]; [14]
  Rescue concentration, Gen (4): >128 µg/mL
[6]; [18]
  Rescue concentration, Imi (2): 16 µg/mL
[6]; [19]
  Rescue concentration, Mero (2): 32 µg/mL
[6]; Tri at susceptible breakpoint 2 μg mL^−1
  Rescue concentration, Tri (2): >128 µg/mL
[7]; [16]
  Rescue concentration, Amox (8): >128 µg/mL
[7]; Col at susceptible breakpoint 2 μg mL^−1
  Rescue concentration, Col (2): >128 µg/mL
[7]; [14]
  Rescue concentration, Gen (4): >128 µg/mL
[7]; [18]
  Rescue concentration, Imi (2): >128 µg/mL
[7]; [19]
  Rescue concentration, Mero (2): >128 µg/mL
[7]; Pol B at susceptible breakpoint 2 μg mL^−1
  Rescue concentration, Pol B (2): >128 µg/mL
[8]; Azi at susceptible breakpoint 2 μg mL^−1
  Rescue concentration, Azi (2): >128 µg/mL
[8]; [14]
  Rescue concentration, Gen (4): >128 µg/mL
[8]; Pen at susceptible breakpoint 0.12 μg mL^−1
  Rescue concentration, Pen (0.12): >128 µg/mL
[8]; [12]
  Rescue concentration, Tri (8): >128 µg/mL
[8]; Van at susceptible breakpoint 2 μg mL^−1
  Rescue concentration, Van (2): >128 µg/mL
